Results as given in patent US20250099446A1, “HYBRID PHARMACEUTICAL COMPOSITION OBTAINED BY CONJUGATION OF A PROTON PUMP INHIBITOR AND A CARBON ANHYDRASE INHIBITOR” (EXO LAB ITALIA, S.r.l., priority 2022, published 2025).
pKi: −log10 of the molar value.

Columns and labels:
Assay in all cases: Stopped-Flow kinetic assay, carbonic anhydrase inhibition
CA II = CA II (Homo sapiens, UniProt P00918)
Method: (§1) All hybrid compounds and individual CAI moieties with OH/SH group were tested for inhibition of off-target isoforms CA I and II and CAI IV, IX and XII by a Stopped-Flow kinetic assay.

CA IX = CA IX (Homo sapiens, UniProt Q16790)
Method: as §1

CA I = CA I (Homo sapiens, UniProt P00915)
Method: as §1

CA IV = CA IV (Homo sapiens, UniProt P22748)
Method: as §1

CA XII = CA XII (Homo sapiens, UniProt O43570)
Chain of CA XII (O43570 25-354): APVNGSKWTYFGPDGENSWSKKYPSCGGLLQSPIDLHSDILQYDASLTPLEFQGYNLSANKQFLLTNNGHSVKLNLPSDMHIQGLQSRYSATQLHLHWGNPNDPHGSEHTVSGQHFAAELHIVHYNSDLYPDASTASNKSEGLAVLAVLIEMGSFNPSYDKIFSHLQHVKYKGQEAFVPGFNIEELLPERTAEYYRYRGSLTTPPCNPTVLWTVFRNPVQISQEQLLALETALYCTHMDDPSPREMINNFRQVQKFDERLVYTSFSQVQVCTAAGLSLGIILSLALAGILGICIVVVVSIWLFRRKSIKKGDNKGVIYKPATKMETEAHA
Method: as §1

Chain of CA IV (P22748 19-284): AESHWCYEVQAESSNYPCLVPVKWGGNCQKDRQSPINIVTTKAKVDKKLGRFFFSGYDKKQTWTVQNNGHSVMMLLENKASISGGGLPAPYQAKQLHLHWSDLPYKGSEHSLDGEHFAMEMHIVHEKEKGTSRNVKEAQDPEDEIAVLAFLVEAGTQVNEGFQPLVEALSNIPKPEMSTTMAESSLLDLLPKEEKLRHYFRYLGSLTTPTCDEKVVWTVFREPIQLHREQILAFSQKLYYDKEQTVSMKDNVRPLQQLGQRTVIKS
Chain of CA I (P00915 whole entry): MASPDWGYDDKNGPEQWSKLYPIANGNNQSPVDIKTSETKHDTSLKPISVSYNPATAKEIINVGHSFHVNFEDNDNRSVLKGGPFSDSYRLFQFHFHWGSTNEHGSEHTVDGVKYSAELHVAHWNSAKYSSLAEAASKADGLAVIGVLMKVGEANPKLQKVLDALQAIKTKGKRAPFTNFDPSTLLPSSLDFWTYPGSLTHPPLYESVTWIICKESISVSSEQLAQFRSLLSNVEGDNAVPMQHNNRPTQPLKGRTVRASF

Row | Compound | pKi (CA II) | pKi (CA IX) | pKi (CA I) | pKi (CA IV) | pKi (CA XII)
1 | Cc1c(OCC(F)(F)F)ccnc1C[S+]([O-])c1nc2ccccc2n1C(=O)OCCCOc1ccc2ccc(=O)oc2c1 (stereo not shown) [Compound A4] | < 5.00 | 7.33 | < 5.00 | 8.11 | 7.69
2 | Cc1c(OCC(F)(F)F)ccnc1C[S+]([O-])c1nc2ccccc2n1C(=O)OCCCOc1ccc2oc(=O)ccc2c1 (stereo not shown) [Compound A3] | < 5.00 | 7.38 | < 5.00 | 8.19 | 8.05
3 | Cc1c(OCC(F)(F)F)ccnc1C[S+]([O-])c1nc2ccccc2n1C(=O)OCCOc1ccc2oc(=O)ccc2c1 (stereo not shown) [Compound A1, 2-((2-Osso-2H-cromen-6-il)ossi)etil 2-(((3-metil-4-(2,2,2-trifluoroetossi)piridin-2-il)metil)sulfinil)-1H-benzo[d]imidazolo-1 carbossilato] | < 5.00 | 7.10 | < 5.00 | 7.84 | 7.28

Now from value to molecule:

Row | pKi (CA II) | pKi (CA IX) | pKi (CA I) | pKi (CA IV) | pKi (CA XII) | Compound
4 | < 5.00 | 6.48 | – | – | – | O=c1ccc2ccc(OCCO)cc2o1 [Compound G1B, 7-(2-idrossietossi)-2H-cromen-2-one]
5 | < 5.00 | 7.01 | < 5.00 | 7.99 | 7.22 | Cc1c(OCC(F)(F)F)ccnc1C[S+]([O-])c1nc2ccccc2n1C(=O)OCCOc1ccc2ccc(=O)oc2c1 (stereo not shown) [Compound A2, 2-((2-Oxo-2H-chromen-7-yl)oxy)ethyl 2-(((3-methyl-4-(2,2,2-trifluoroethoxy)pyridin-2-yl)methyl)sulfinyl)-1H-benzo[d]imidazole-1 carboxylate]
6 | < 5.00 | 6.51 | < 5.00 | – | – | O=c1ccc2cc(OCCO)ccc2o1 [Compound G1A, 6-(2-hydroxyethoxy)-2H-chromen-2-one]
